assay: gradient 5% acetonitrile 3 min, to 50% in 2 min, to 85% in 15 min, held 3 min, 100 µL/min; conditions: column: Zorbax Extend-C18 2.1 x 50 mm; eluents: water / acetonitrile, 0.1% formic acid
Summary of the method: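 The mobile phases were water and acetonitrile, each with 0.1% formic acid, pumped at 100 μL/min through a Zorbax Extend-C18 column (2.1 × 50 mm, 1.8 μm). Pure standards were injected as mixtures of ~100 molecules and detected by a quadrupole time-of-flight mass spectrometer in positive and negative ionization mode. Retention time came from computationally picked adduct peaks, each inspected by hand.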

| Compound | RP-LC retention time [s] |
| --- | --- |
| Cc1ccc(-c2csc(NC(=O)c3ccc4c(c3)OCO4)n2)cc1C | 1100 |
| CSc1cccc(NC(=O)CSc2nccc(N3CCN(c4cc(C)ccc4C)CC3)n2)c1 | 938 |
| CCCN(CC1CCOC1)S(=O)(=O)c1ccc(C)c(F)c1 (stereo not drawn) | 878 |
| COc1ccc(-c2nc3cccnc3n2C2CCN(C(=O)c3cccs3)C2)cc1 (stereo not drawn) | 732 |
| COc1ccc2c(c1)C1(CCN(C(=O)NCCC(C)C)C1)C(=O)N2 (stereo not drawn) | 716 |
| Cc1ccc(C)c(-c2cc3c(=O)n(Cc4nc(-c5cccc(Br)c5)no4)ncn3n2)c1 | 1340 |
| Cc1cccc(-c2noc(C3CCCN3C(=O)CNC(=O)c3cccs3)n2)c1 (stereo not drawn) | 610 |
| O=C(Oc1ccccc1)N(c1ccccc1)c1ccccc1 | 1160 |
| CCOc1ccc(NC(=O)N2CCC(CN3CCCC(C)C3)CC2)cc1 (stereo not drawn) | 639 |
| COc1ccccc1CNC(=O)c1nnc(-c2ccc(S(=O)(=O)N3CCCC3)cc2)o1 | 906 |
| COc1cc(OC)c(Nc2cc(C)nc3nc(-c4ccc(C)cc4)nn23)cc1Cl | 1060 |
| CCn1cc(CCN2CCN(S(=O)(=O)c3ccc(F)cc3)CC2)c2cccnc21 | 638 |
| CCCNC(=O)C1CCCN(c2ccc(SCC(=O)Nc3ccc(C(=O)OC)cc3)nn2)C1 (stereo not drawn) | 672 |
| O=C(NC1CCN(Cc2ccccc2)CC1)c1cn2nc(Cl)ccc2n1 | 621 |
| Cc1nnc(N2CCCC(C(=O)N3CCCCC3)C2)c2nn(-c3ccccc3)c(C)c12 (stereo not drawn) | 686 |
| Cc1cc(F)ccc1NC(=O)Cn1ccc2sccc2c1=O | 726 |
| O=S(=O)(c1ccc(-c2nnc(C3CC3)o2)o1)N1CCOCC1 | 717 |
| Nc1cc(C2CCN(C(=O)Nc3ccc(Br)cc3F)CC2)no1 | 736 |
| O=C(Nc1ccc(-n2cnnn2)cc1)C1CC(=O)N(c2ccccc2)C1 (stereo not drawn) | 662 |
| COc1ccc(OCc2nc(-c3ccc(NS(C)(=O)=O)cc3)no2)cc1 | 868 |

| Compound | RP-LC retention time [s] |
| --- | --- |
| COc1ccc(C)cc1NC(=O)N1C[C@@H]2C[C@H]1C[C@@H]2NC(=O)c1cccs1 | 819 |
| Cc1ccc(-c2noc(CN3C(=O)COc4cc(Cl)ccc43)n2)cc1 | 1140 |
| CS(=O)(=O)Nc1ccc(C2(C(=O)NCc3ccc(F)cc3Cl)CCC2)cc1 | 847 |
| Clc1ccccc1-c1csc(Nc2ccccn2)n1 | 960 |
| Cc1cc(OCC(=O)Nc2ccc3c(c2)OCO3)nc(-c2ccc(F)cc2)n1 | 960 |
| Cc1ccc(C)c(NC(=O)N2CC(c3nc(C)no3)C3(CCOCC3)C2)c1 (stereo not drawn) | 693 |
| Oc1ccc(C2NCCc3c2[nH]c2ccc(Cl)cc32)cc1O (stereo not drawn) | 620 |
| O=C(CCc1c(-c2ccccc2)nc2ccccn12)NCc1ccccc1F | 652 |
| c1ccc(-c2cn(CCC3CCCCN3)nn2)cc1 (stereo not drawn) | 509 |
| COC(=O)c1c(C)[nH]c(C(=O)N2CCC(CC(=O)NCc3ccccc3F)CC2)c1C | 743 |
| COc1ccc(-c2ccnc3nc(C4CC4)nn23)cc1 | 805 |
| COc1cccc(-n2c(=O)c(C(=O)NC3CCCCC3)c(O)c3cccnc32)c1 | 1280 |
| COc1ccc2c(ccn2CC(=O)N[C@@H](C)C(=O)O)c1 | 665 |
| CN(CCc1noc(COc2ccccc2F)n1)C(=O)NCCc1ccccc1 | 876 |
| COC(=O)c1cc2nc(-c3ccc(F)cc3)cc(C)n2n1 | 866 |
| COc1ccc(CNC(=O)C2CCCN(S(=O)(=O)c3ccc(OC)c(Cl)c3)C2)cc1 (stereo not drawn) | 917 |
| CN(C)C(=O)c1cc2c(s1)CCC(C(=O)NCCc1ccccc1)C2 (stereo not drawn) | 710 |
| COc1cccc(-c2noc(C3CC(=O)N(c4ccc(Cl)cc4)C3)n2)c1OC (stereo not drawn) | 963 |
| CCOC(=O)c1ccccc1NC(=O)N(Cc1cc(=O)[nH]c2ccccc12)CC(C)C | 1090 |
| Cc1ccc(-c2nc3ccc(C)cn3c2Nc2ccc3c(c2)OCCO3)cc1 | 715 |

| Compound | RP-LC retention time [s] |
| --- | --- |
| O=C(CSc1nccc(-c2ccc3c(c2)OCO3)n1)N1CCOCC1 | 690 |
| COc1ccc(-c2noc(-c3nnn4c3COC(c3ccc(Cl)cc3)C4)n2)cc1OC (stereo not drawn) | 1130 |
| CC(=O)N1CCN(c2cc(-c3nc(-c4cccc(F)c4)no3)c3ccccc3n2)CC1 | 1090 |
| Cc1nc([C@@H]2CN(S(=O)(=O)C(C)C)C[C@H]2C(N)=O)n[nH]1 | 566 |
| COc1ccc(NC(=O)NCCc2nc3cccnc3n2-c2ccccc2)cc1OC | 657 |
| CCCn1cc(C(=O)Nc2ccc(OC)c(Cl)c2)c(=O)c2ccc(C)nc21 | 1210 |
| COc1ccc2c(c1)C1(CCN(S(=O)(=O)c3ccccc3F)C1)C(=O)N2C (stereo not drawn) | 901 |
| CN(c1nccn2c(=O)n(CC(=O)Nc3cc(F)ccc3F)nc12)C1CCCCC1 | 786 |
| Cc1ccsc1C(=O)Nc1ccc(SCc2nnc(-c3ccc4c(c3)OCO4)o2)cc1 | 978 |
| CCCCn1c(=O)c2ccccc2n(Cc2nc(-c3ccccc3OCC)no2)c1=O | 1130 |
| COc1ccc(N2CCN(c3nc(C(=O)N4CCN(CC(C)C)CC4)cs3)CC2)cc1 | 648 |
| O=C(Nc1ccccc1)N1CC(Oc2ccc(-c3nc(-c4ccccc4)no3)cc2)C1 | 1150 |
| COC(=O)c1sccc1S(=O)(=O)NCC1CCN(Cc2cc(C)oc2C)CC1 | 579 |
| CCCCC(=O)Nc1ccc(N(C)CCc2c(C)nn(C)c2C)c(C(=O)O)c1 | 576 |
| Cc1cccc(N2CCN(Cc3nc(-c4ccc(N5CCC(C)CC5)nc4)no3)CC2)c1 | 1110 |
| COC(=O)CNC(=O)NC(C(=O)N1CCc2ccccc21)C(C)C (stereo not drawn) | 740 |
| CCOc1ccc(NC(=O)N2CCN(c3ccc(=O)n(-c4ccc(F)cc4)n3)CC2)cc1 | 804 |
| Cc1ccccc1-c1noc(Cn2ccn(Cc3ccc(Cl)cc3)c(=O)c2=O)n1 | 943 |

The remaining lines, values ahead:

| RP-LC retention time [s] | Compound |
| --- | --- |
| 746 | Cc1ccc(C)c(Nc2c(-c3ccc(N4CCOCC4)cc3)nc3ncccn23)c1 |
| 1060 | Cc1ccc(N(C)S(=O)(=O)c2ccc(-c3c(C)noc3C)cc2)cc1 |
| 775 | CO[C@H]1C(=O)N(C(C)C)[C@H]1C1CCN(S(=O)(=O)c2cccc3cccnc23)CC1 |
| 990 | O=C(Nc1cccc2c1CCCC2)C1CCN(S(=O)(=O)c2cccc3nonc23)CC1 |
| 836 | COc1ccccc1CNC(=O)Cn1c(=O)cc(-c2nc(C)no2)c2ccccc21 |
| 597 | CCc1noc2nc(C)nc(N3CCCC(C(=O)NCCN4CCCC4)C3)c12 (stereo not drawn) |
| 1020 | COc1ccc(N2CCN(c3cc(SCC(=O)Nc4ccc(C)cc4C)ncn3)CC2)cc1 |
| 882 | CCc1nn(C)c(=O)c2cc(S(=O)(=O)NCc3cc(F)cc(F)c3)cn12 |
| 853 | O=C(Nc1ccc2c(c1)OCCO2)N1CC(c2nc(CCOCc3ccccc3)no2)C1 |
| 624 | Cc1ccc(-c2cc(C(=O)NCCN3CCN(C)CC3)n(C)c2)cc1 |
| 746 | COc1cccc(-c2ccc(=O)n(CCc3nc(-c4cccnc4)no3)n2)c1 |
| 1340 | Cc1ccc(C)c(N2CCN(c3ccc4cc(S(=O)(=O)N5CCCCC5C)ccc4n3)CC2)c1 (stereo not drawn) |
| 978 | CCC(c1cccs1)N1C(=O)[C@H]2CN(S(=O)(=O)c3ccc(F)c(C)c3)C[C@H]2C1=O (stereo partly drawn) |
| 842 | Cc1ccc2c(c1)N(CC#N)N=C(C(=O)N1CCC(C)CC1)S2(=O)=O |
| 1140 | C=CCn1c(=O)c2ccccc2n(Cc2nc(-c3ccc(OC(F)(F)F)cc3)no2)c1=O |
| 608 | CCNC(=O)Nc1ccc2c(c1)CN(Cc1sccc1C)CCO2 |
| 722 | CCN1CCN(S(=O)(=O)c2cccc(-c3nc(-c4ccccc4)no3)c2)CC1 |
| 641 | CCOc1ccccc1C(=O)N1CCc2[nH]cnc2C12CCCCC2 |
| 937 | CCn1ncn2cc(S(=O)(=O)Nc3cc(C)ccc3C)cc2c1=O |
| 999 | CCCS(=O)(=O)c1nc2ccc(NS(=O)(=O)c3ccc(C)cc3C)cc2s1 |
| 931 | COc1ccc(-c2cn3c(CC(=O)N(Cc4cccs4)C4CCCCC4)csc3n2)cc1OC |
| 1110 | C=CCN(Cc1nc(-c2cccc(C)c2)no1)C(=O)Nc1ccc(C)cc1 |
| 937 | Cc1cccc(-c2csc3c(=O)n(Cc4ccc(N5CCCC5=O)cc4)cnc23)c1 |
| 1130 | COc1ccccc1-c1noc(Cn2ncn3nc(-c4ccc(C)cc4C)cc3c2=O)n1 |
| 841 | COC1CCC12CCN(C(=O)C1CCCC1)CC2 (stereo not drawn) |
| 607 | CC(=O)N1CCc2cc(C(=O)N3CCOCC3)ccc21 |
| 844 | Cc1ccc(-c2noc(Cn3ccn(-c4ccccc4)c(=O)c3=O)n2)cc1 |
| 661 | COc1cc(-c2nc3ccc(C)cn3c2Nc2ccccc2C)ccc1O |
| 1080 | Cc1cc2nn(CC(=O)N3CCc4ccccc43)c(=O)n2c(Nc2ccccc2C)n1 |
| 873 | CCc1ccc(-c2cc(C(=O)N3CCCN(c4ccc(=O)n(-c5ccc(C)cc5)n4)CC3)[nH]n2)cc1 |

— the METLIN SMRT retention time set (Domingo-Almenara et al. 2019)
